Experimental data reported in BindingDB's records for doi:10.1016/j.bmcl.2006.12.025 (Pharmacopeia Drug Discovery, 2007).

What follows are molecules tested against Prostacyclin receptor (Homo sapiens, UniProt P43119) (assay: IP Receptor Filter Binding Assay and cAMP Assay). Conditions: pH 7.4; 22 °C.
From the text: IP receptor binding activity was quantified via a filter binding assay measuring displacement of [3H]-Iloprost binding to human platelet membranes. Raw data were fit to the […] to calculate IC50 values. EC50/IC50 values were obtained from functional antagonism assay by measuring the inhibition of cAMP production induced by Iloprost in human erythroleukemia (HEL) cells using a Perkin-Elmer LANCETM cAMP detection kit.

Chain of Prostacyclin receptor (P43119 whole entry): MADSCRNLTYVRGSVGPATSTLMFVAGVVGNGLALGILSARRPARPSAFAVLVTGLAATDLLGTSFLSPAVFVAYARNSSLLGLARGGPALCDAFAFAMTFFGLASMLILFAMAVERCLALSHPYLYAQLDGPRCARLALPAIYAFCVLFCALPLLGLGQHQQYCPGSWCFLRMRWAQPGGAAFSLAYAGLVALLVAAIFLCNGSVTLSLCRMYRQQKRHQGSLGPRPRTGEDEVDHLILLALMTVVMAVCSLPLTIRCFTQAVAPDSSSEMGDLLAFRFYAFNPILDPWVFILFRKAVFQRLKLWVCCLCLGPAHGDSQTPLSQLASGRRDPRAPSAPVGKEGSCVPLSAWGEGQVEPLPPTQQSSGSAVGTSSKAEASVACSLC

IC50	SMILES
16 nM	CC(=O)Nc1cccc(-c2ccc(Cc3ocnc3C(=O)N[C@@H](Cc3ccccc3)C(=O)O)cc2)c1 [(2S)-2-[(5-{[4-(3-acetamidophenyl)phenyl]methyl}-1,3-oxazol-4-yl)formamido]-3-phenylpropanoic acid]
296 nM	CC(=O)Nc1cccc(-c2ccc(Cc3ocnc3C(=O)NC[C@@H](C)c3ccccc3)cc2)c1 [5-{[4-(3-acetamidophenyl)phenyl]methyl}-N-[(2S)-2-phenylpropyl]-1,3-oxazole-4-carboxamide]
3580 nM	CC(=O)Nc1cccc(-c2ccc(Cc3ocnc3C(=O)NC(C)C)cc2)c1 [5-{[4-(3-acetamidophenyl)phenyl]methyl}-N-(propan-2-yl)-1,3-oxazole-4-carboxamide]
358 nM	CC(=O)Nc1cccc(-c2ccc(Cc3ocnc3C(=O)N[C@H]3C[C@@H]3c3ccccc3)cc2)c1 [5-{[4-(3-acetamidophenyl)phenyl]methyl}-N-[(1S,2R)-2-phenylcyclopropyl]-1,3-oxazole-4-carboxamide]
3310 nM	CC(=O)Nc1cccc(-c2ccc(Cc3ocnc3C(=O)NCCN(C)C)cc2)c1 [N-[2-(dimethylamino)ethyl]-5-{[4-(3-acetamidophenyl)phenyl]methyl}-1,3-oxazole-4-carboxamide]
1010 nM	CC(=O)Nc1cccc(-c2ccc(Cc3ocnc3C(=O)NCCc3ccccn3)cc2)c1 [5-{[4-(3-acetamidophenyl)phenyl]methyl}-N-[2-(pyridin-2-yl)ethyl]-1,3-oxazole-4-carboxamide]
831 nM	CC(=O)Nc1cccc(-c2ccc(Cc3ocnc3C(=O)N[C@H](Cc3ccccc3)C(=O)O)cc2)c1 [(2R)-2-[(5-{[4-(3-acetamidophenyl)phenyl]methyl}-1,3-oxazol-4-yl)formamido]-3-phenylpropanoic acid]
3310 nM	CNC(=O)c1ncoc1Cc1ccc(-c2cccc(NC(C)=O)c2)cc1 [5-{[4-(3-acetamidophenyl)phenyl]methyl}-N-methyl-1,3-oxazole-4-carboxamide]
741 nM	CC(=O)Nc1cccc(-c2ccc(Cc3ocnc3C(=O)NCCc3cccnc3)cc2)c1 [5-{[4-(3-acetamidophenyl)phenyl]methyl}-N-[2-(pyridin-3-yl)ethyl]-1,3-oxazole-4-carboxamide]
138 nM	CC(=O)Nc1cccc(-c2ccc(Cc3ocnc3C(=O)NCCc3ccccc3)cc2)c1 [5-{[4-(3-acetamidophenyl)phenyl]methyl}-N-(2-phenylethyl)-1,3-oxazole-4-carboxamide]
66 nM	CC(=O)Nc1cccc(-c2ccc(Cc3ocnc3C(=O)NCc3ccccc3)cc2)c1 [N-benzyl-5-{[4-(3-acetamidophenyl)phenyl]methyl}-1,3-oxazole-4-carboxamide]
2130 nM	CC(=O)Nc1cccc(-c2ccc(Cc3ocnc3C(=O)N(C)CCc3ccccc3)cc2)c1 [5-{[4-(3-acetamidophenyl)phenyl]methyl}-N-methyl-N-(2-phenylethyl)-1,3-oxazole-4-carboxamide]
278 nM	CC(=O)Nc1cccc(-c2ccc(Cc3ocnc3C(=O)NC(C)c3ccccc3)cc2)c1 (racemic) [5-{[4-(3-acetamidophenyl)phenyl]methyl}-N-(1-phenylethyl)-1,3-oxazole-4-carboxamide]
51 nM	CC(=O)Nc1cccc(-c2ccc(Cc3ocnc3C(=O)NC[C@H](C)c3ccccc3)cc2)c1 [5-{[4-(3-acetamidophenyl)phenyl]methyl}-N-[(2R)-2-phenylpropyl]-1,3-oxazole-4-carboxamide]
476 nM	CC(=O)Nc1cccc(-c2ccc(Cc3ocnc3C(=O)NCCc3ccncc3)cc2)c1 [5-{[4-(3-acetamidophenyl)phenyl]methyl}-N-[2-(pyridin-4-yl)ethyl]-1,3-oxazole-4-carboxamide]
828 nM	CC(=O)Nc1cccc(-c2ccc(Cc3ocnc3C(=O)Nc3ccccc3)cc2)c1 [5-{[4-(3-acetamidophenyl)phenyl]methyl}-N-phenyl-1,3-oxazole-4-carboxamide]

Same assay, conditions: pH 7.4; 22 °C; read-out: IC50

IC50	SMILES
12400 nM	CC(=O)Nc1cccc(-c2ccc(Cc3ocnc3C(=O)NC(C)C)cc2)c1 [5-{[4-(3-acetamidophenyl)phenyl]methyl}-N-(propan-2-yl)-1,3-oxazole-4-carboxamide]
